According to ChEMBL document CHEMBL3758163, “Extended structure-activity study of thienopyrimidine-based EGFR inhibitors with evaluation of drug-like properties” (Eur J Med Chem, 2016):
Converted amounts (≈) assume the structure as drawn.

Legend:
[1] = target: Epidermal growth factor receptor (Homo sapiens, UniProt P00533); assay: Inhibition of EGFR (unknown origin) by Z -LYTE assay
Danio rerio [2] = species on record: Danio rerio; assay: Toxicity in zebrafish embryo assessed as effect on morphology at <12.5 uM; assay type: organism-based; conditions: in vivo
in vitro = conditions: human, Caco-2
Description: Efflux ratio of permeability from basolateral to apical side over apical to basolateral side in human Caco2 cells at 10 uM by LC-MS/MS analysis

Danio rerio [3] = species on record: Danio rerio; assay: Toxicity in zebrafish embryo assessed mortality measured for 24 hrs; assay type: organism-based; conditions: in vivo
[4] = Half-life in human liver microsomes at 3 uM by LC-MS/MS analysis; assay type: ADME
[5] = Aqueous solubility of compound in 0.01 M PBS buffer at pH 7.4 after 2 hrs by turbidimetric assay; assay type: physicochemical
[6] = Intrinsic clearance in human liver microsomes at 3 uM by LC-MS/MS analysis; assay type: ADME; conditions: read-out: CLH
[7] = Toxicity in zebrafish embryo assessed as survival for 3.5 days; assay type: organism-based, Danio rerio; conditions: in vivo
Danio rerio [8] = assay: Toxicity in zebrafish embryo assessed as cardiac oedema; assay type: organism-based; conditions: in vivo
[9] = Toxicity in zebrafish embryo assessed as morphological defects for 3.5 days; assay type: organism-based, Danio rerio
Danio rerio [10] = species on record: Danio rerio; assay: Toxicity in zebrafish embryo assessed as kinked tail; assay type: organism-based; conditions: in vivo
Danio rerio [11] = species on record: Danio rerio; assay: Toxicity in zebrafish embryo assessed mortality after 50 to 70 hrs; assay type: organism-based; conditions: in vivo
Danio rerio [12] = species on record: Danio rerio; assay: Toxicity in zebrafish embryo assessed as blood circulation defects; assay type: organism-based; conditions: in vivo

Epidermal growth factor receptor, sequence (P00533 whole entry): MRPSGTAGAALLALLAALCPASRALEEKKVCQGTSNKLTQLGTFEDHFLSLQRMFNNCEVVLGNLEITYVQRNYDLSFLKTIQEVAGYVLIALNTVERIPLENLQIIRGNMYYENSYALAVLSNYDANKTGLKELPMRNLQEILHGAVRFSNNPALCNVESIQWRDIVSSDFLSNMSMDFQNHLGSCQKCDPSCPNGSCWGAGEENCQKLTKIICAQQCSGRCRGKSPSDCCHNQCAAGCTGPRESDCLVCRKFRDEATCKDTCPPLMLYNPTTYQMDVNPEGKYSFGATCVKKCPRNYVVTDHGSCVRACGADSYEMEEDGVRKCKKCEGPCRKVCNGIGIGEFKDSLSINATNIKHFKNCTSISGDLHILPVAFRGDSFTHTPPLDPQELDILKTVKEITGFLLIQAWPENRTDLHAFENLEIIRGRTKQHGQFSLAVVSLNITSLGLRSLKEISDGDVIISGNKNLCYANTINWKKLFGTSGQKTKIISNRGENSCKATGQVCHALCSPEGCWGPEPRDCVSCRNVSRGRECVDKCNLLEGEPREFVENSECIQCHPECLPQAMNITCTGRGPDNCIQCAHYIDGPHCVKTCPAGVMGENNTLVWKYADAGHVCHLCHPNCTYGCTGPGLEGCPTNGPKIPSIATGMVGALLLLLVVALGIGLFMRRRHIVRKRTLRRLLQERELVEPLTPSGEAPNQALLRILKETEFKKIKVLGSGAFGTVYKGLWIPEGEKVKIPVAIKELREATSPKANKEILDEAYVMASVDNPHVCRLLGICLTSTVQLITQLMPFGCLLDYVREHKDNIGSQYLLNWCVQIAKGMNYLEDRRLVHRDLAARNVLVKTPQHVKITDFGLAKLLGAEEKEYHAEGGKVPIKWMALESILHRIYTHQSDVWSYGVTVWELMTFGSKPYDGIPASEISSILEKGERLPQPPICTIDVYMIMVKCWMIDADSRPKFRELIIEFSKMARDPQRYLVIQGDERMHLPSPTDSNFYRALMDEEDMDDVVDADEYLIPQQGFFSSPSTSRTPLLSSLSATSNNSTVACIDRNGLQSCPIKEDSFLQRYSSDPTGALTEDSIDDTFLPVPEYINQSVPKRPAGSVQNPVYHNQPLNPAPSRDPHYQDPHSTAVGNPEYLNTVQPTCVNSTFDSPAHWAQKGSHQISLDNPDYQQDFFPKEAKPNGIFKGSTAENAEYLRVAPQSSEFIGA

Compound | IC50 [1] [nM] | other results
C[C@@H](Nc1ncnc2sc(-c3ccc(S(C)(=O)=O)cc3)cc12)c1ccccc1 | 41 | –
C[C@@H](Nc1ncnc2sc(-c3ccc(CO)cc3F)cc12)c1ccccc1 | 13 | –
C[C@@H](Nc1ncnc2sc(-c3ccc(C=O)cc3F)cc12)c1ccccc1 | 59 | –
COc1cccc(-c2cc3c(N[C@H](C)c4ccccc4)ncnc3s2)c1OC | 13 | –
OCc1ccc(-c2cc3c(Nc4ccccc4)ncnc3s2)cc1 | 21 | –
COc1c(C=O)cccc1-c1cc2c(N[C@H](C)c3ccccc3)ncnc2s1 | 21 | –
COc1cc(C(=O)NCCN(C)C)cc(OC)c1-c1cc2c(N[C@H](C)c3ccccc3)ncnc2s1 | 0.4 | Activity (Danio rerio [2]): Non-toxic; efflux ratio at 10 µM (in vitro): 40; Activity (Danio rerio [3]): Toxic; half-life at 3 µM [4]: 2.37 h; solubility kinetic at 2 h [5]: 65 µM (≈ 32.9 µg/mL); microsomal CLint at 3 µM [6]: 9.7 µL/min/mg; LC50 at 84 h [7]: 15000 nM
COC(=O)c1ccc(-c2cc3c(N[C@H](C)c4ccccc4)ncnc3s2)c(OC)c1 | 20 | –
C[C@@H](Nc1ncnc2sc(-c3ccc(C(=O)O)cc3)cc12)c1ccccc1 | 19 | –
COC(=O)c1cccc(-c2cc3c(N[C@H](C)c4ccccc4)ncnc3s2)c1OC | 9 | –
OCc1ccc(-c2cc3c(NCc4ccccc4)ncnc3s2)cc1 | 48 | –
COc1cccc(OC)c1-c1cc2c(N[C@H](CO)c3ccccc3)ncnc2s1 | 0.9 | Activity (Danio rerio [8]): Toxic; EC50 at 3.5 days [9]: 12000 nM; Activity (Danio rerio [10]): Toxic; half-life at 3 µM [4]: 0.567 h; Activity (Danio rerio [11]): Toxic; microsomal CLint at 3 µM [6]: 41 µL/min/mg; Activity (Danio rerio [12]): Toxic; LC50 at 84 h [7]: 18000 nM
C[C@@H](Nc1ncnc2sc(-c3cccc(S(C)(=O)=O)c3)cc12)c1ccccc1 | 26 | –

Further lines, with some results ahead:

IC50 [1] [nM] | Compound | other results
1.5 | COc1c(CO)cccc1-c1cc2c(N[C@H](C)c3ccccc3)ncnc2s1 | –
9 | OC[C@@H](Nc1ncnc2sc(-c3ccccc3)cc12)c1ccccc1 | –
4 | COC(=O)c1cc(OC)c(-c2cc3c(N[C@H](C)c4ccccc4)ncnc3s2)c(OC)c1 | –
3 | COc1ccc(C=O)cc1-c1cc2c(N[C@H](C)c3ccccc3)ncnc2s1 | –
6 | COc1cc(F)ccc1-c1cc2c(N[C@H](C)c3ccccc3)ncnc2s1 | –
3 | OCc1cccc(-c2cc3c(N[C@H](CO)c4ccccc4)ncnc3s2)c1 | –
6 | C[C@@H](Nc1ncnc2sc(-c3cccc(C=O)c3)cc12)c1ccccc1 | –
2 | COc1cc(C(N)=O)ccc1-c1cc2c(N[C@H](C)c3ccccc3)ncnc2s1 | –
3 | COc1c(C(=O)NCCN(C)C)cccc1-c1cc2c(N[C@H](C)c3ccccc3)ncnc2s1 | –
6 | COc1cc(C=O)ccc1-c1cc2c(NCc3ccccc3)ncnc2s1 | –
5 | COc1ccc(CO)cc1-c1cc2c(N[C@H](C)c3ccccc3)ncnc2s1 | –
7 | C[C@@H](Nc1ncnc2sc(-c3ccc(C(N)=O)cc3)cc12)c1ccccc1 | –
5 | COc1cc(C=O)ccc1-c1cc2c(Nc3ccc(F)c(Cl)c3)ncnc2s1 | –
5 | COc1cc(CO)ccc1-c1cc2c(NCc3ccccc3)ncnc2s1 | –
8 | C[C@@H](Nc1ncnc2sc(-c3cccc(C(=O)O)c3)cc12)c1ccccc1 | –
0.5 | COc1cc(C(=O)NCCN(C)C)ccc1-c1cc2c(N[C@H](C)c3ccccc3)ncnc2s1 | efflux ratio at 10 µM (in vitro): 18; half-life at 3 µM [4]: 3.78 h; solubility kinetic at 2 h [5]: > 100 µM; microsomal CLint at 3 µM [6]: 6.1 µL/min/mg
7 | COC(=O)c1ccc(OC)c(-c2cc3c(N[C@H](C)c4ccccc4)ncnc3s2)c1 | –
0.9 | C[C@@H](Nc1ncnc2sc(-c3cccc(C(=O)NCCN(C)C)c3)cc12)c1ccccc1 | efflux ratio at 10 µM (in vitro): 8.9; half-life at 3 µM [4]: 1.58 h; solubility kinetic at 2 h [5]: > 100 µM
5 | C[C@@H](Nc1ncnc2sc(-c3cccc(C(N)=O)c3)cc12)c1ccccc1 | –
2 | COc1cccc(OC)c1-c1cc2c(N[C@H](C)c3ccccc3)ncnc2s1 | –
